The values that follow are results of earlier work, collected in patent publication US20090311315A1, “Multimicroparticulate Oral Pharmaceutical Form with Modified Release of Angiotensin II Receptor Antagonists” (FLAMEL TECHNOLOGIES, S.A., priority 2005, published 2009).

The conditions of the data set: in vivo.
For the compound `CCOc1nc2cccc(C(=O)O)c2n1Cc1ccc(-c2ccccc2-c2nnn[nH]2)cc1` [cardesartan], the elimination half-life is 4 to 9 h. As to `CCCCC(=O)N(Cc1ccc(-c2ccccc2-c2nnn[nH]2)cc1)[C@H](C(=O)O)C(C)C` [valsartan], the elimination half-life is 4 to 6 h. On to eprosartan cilexitil, for which the elimination half-life was 5 to 9 h.
